# Measured values reported in PMC6112376, “Comprehensive Analyses and Prioritization of Tox21 10K Chemicals Affecting Mitochondrial Function by in-Depth Mechanistic Studies” (Environmental Health Perspectives, 2018).
# Where two headings read alike, the source gives them in different places.
# What was measured:
# hNSC = test: MMP assay in human neural stem cells (hNSC); type: cell-based; conditions: for IC50: read-out: hNSC IC50 (MMP)
# HepG2 cells [1] = test: ROS-Glo hydrogen peroxide (ROS) assay; type: cell-based, human; conditions: for EC50: read-out: ROS (HepG2) EC50
# HepG2 cells [2] = test: Intracellular ATP content (cell viability) assay; type: cell-based, human
# [3] = system: p53 (p53-bla HCT-116 cells); test: p53 β-lactamase reporter gene assay; type: cell-based, human
# [4] = system: Nrf2/ARE (ARE-bla HepG2 cells); test: ARE β-lactamase reporter gene assay; type: cell-based, human
# [5] = system: isolated rat liver mitochondria; test: Oxygen consumption, Clark-type oxygen electrode; type: biochemical
# HepG2 cells [6] = test: Oxygen consumption, Seahorse XF24 analyzer; type: cell-based, human
# [7] = system: HeLa cells expressing YFP-Parkin; test: Parkin translocation assay; type: cell-based, human
# HepG2 cells [8] = system: HepG2 cells
# rat primary hepatocytes [9] = system: rat primary hepatocytes
# HepG2 cells [10] = conditions: cited from earlier work; for IC50: read-out: MMP assays IC50 (µM) qHTS-HepG2
# rat primary hepatocytes [11] = test: MMP assay in rat primary hepatocytes
# [12] = system: Caenorhabditis elegans (Bristol N2); conditions: Bristol N2 (wild type), Caenorhabditis elegans, in vivo
# [13] = system: Caenorhabditis elegans strain PE255; conditions: PE255 [sur-5::luc+::gfp; rol-6(su1006)], Caenorhabditis elegans, in vivo
# HepG2 cells [14] = test: cells; conditions: Homo sapiens
# [15] = system: Caenorhabditis elegans strain PE255; test: In vivo C. elegans ATP status assay
# [16] = system: Caenorhabditis elegans (Bristol N2); test: C. elegans larval development and growth assay
# [17] = 16 h incubation, mean±SD of three experiments
compound,measurement,setting,value
CC(C)c1cccc(C(C)C)c1N1C(=O)c2ccc(O)cc2C1=O [5HPP-33],hNSC (efficacy) (MMP),hNSC,12.1±1.39 ( −107±4.15 ) %
same,IC50,hNSC,12.1 µM
same,ROS (HepG2) (efficacy),HepG2 cells [1],37.1±2.42 ( 37.6±1.63 ) %
same,EC50,HepG2 cells [1],37.1 µM
same,"ATP (HepG2, galactose) (efficacy)",HepG2 cells [2],39.7±2.69 ( −66.5±7.10 ) %
same,"ATP (HepG2, glucose) (efficacy)",HepG2 cells [2],51.2±14.4 ( −67.7±3.67 ) %
same,IC50,"HepG2 cells [2]; read-out: ATP (HepG2, galactose) IC50",39.7 µM
same,IC50,"HepG2 cells [2]; read-out: ATP (HepG2, glucose) IC50",51.2 µM
same,EC50,[3]; [17],1.73 ± 0.19 µM
same,p53 (HCT-116) (efficacy),[3]; % of positive control,76.9±9.78%
same,EC50,"[4]; 16 h incubation, mean±SD of three experiments, read-out: ARE (HepG2) EC50",25.3 ± 1.74 µM
same,ARE (HepG2) (efficacy),[4]; % of positive control,54.9±7.97%
same,Potential Mechanism,[5],"Uncoupler at low concentration (20 µM), and uncoupler + inhibitor at high concentration (100 µM)"
same,"I-ADP, % of control (O2 consumption rate)",[5]; 4 µM,107 (52.5) % of control
same,"I-sub, % of control (O2 consumption rate)",[5]; 4 µM,123 (19.8) % of control
same,"II-ADP, % of control (O2 consumption rate)",[5]; 4 µM,89 (69.2) % of control
same,"II-sub, % of control (O2 consumption rate)",[5]; 4 µM,97 (29.6) % of control
same,"I-ADP, % of control (O2 consumption rate)",[5]; 20 µM,122 (60.3) % of control
same,"I-sub, % of control (O2 consumption rate)",[5]; 20 µM,296 (47.6) % of control
same,"II-ADP, % of control (O2 consumption rate)",[5]; 20 µM,95 (73.6) % of control
same,"II-sub, % of control (O2 consumption rate)",[5]; 20 µM,166 (50.8) % of control
same,"I-ADP, % of control (O2 consumption rate)",[5]; 100 µM,77 (41.0) % of control
same,"I-sub, % of control (O2 consumption rate)",[5]; 100 µM,331 (44.5) % of control
same,"II-ADP, % of control (O2 consumption rate)",[5]; 100 µM,51 (34.2) % of control
same,"II-sub, % of control (O2 consumption rate)",[5]; 100 µM,200 (43.4) % of control
same,Activity in oxygen consumption,HepG2 cells [6],Uncoupler+inhibitor
same,Parkin recruitment,[7],Active
same,HepG2 (efficacy) Galactose (MMP),HepG2 cells [8],29.4±5.02 ( −106±1.68 ) %
same,HepG2 (efficacy) Glucose (MMP),HepG2 cells [8],20.1±3.62 ( −100±2.99 ) %
same,MMP assays efficacy (%) HepG2,HepG2 cells [8],-96%
same,IC50,HepG2 cells [8]; read-out: HepG2 IC50 Galactose (MMP),29.4 µM
same,IC50,HepG2 cells [8]; read-out: HepG2 IC50 Glucose (MMP),20.1 µM
same,IC50,HepG2 cells [8]; read-out: MMP assays IC50 (µM) HepG2,2.24 µM
same,Rat hepatocytes (efficacy) (MMP),rat primary hepatocytes [9],38.3±4.41 ( −99.8±6.08 ) %
same,MMP assays efficacy (%) qHTS-HepG2,HepG2 cells [10],-97±0%
same,IC50,HepG2 cells [10],2.09 ± 0.87 µM
same,IC50,rat primary hepatocytes [11]; read-out: MMP assays IC50 (µM) Rat Hepatocytes,29.1 ± 12.2 µM
same,IC50,rat primary hepatocytes [11]; read-out: Rat hepatocytes IC50 (MMP),38.3 µM
O=C1c2ccccc2C(=O)C1C(=O)C(c1ccccc1)c1ccc(Cl)cc1 (stereo not drawn) [Chlorophacinone],IC50,"hNSC; Homo sapiens, Neural stem cell, 1 h",12.6 µM
same,EC50,"HepG2 cells [1]; Homo sapiens, HepG2, 2 h",41.7 µM
same,IC50,"HepG2 cells [2]; Homo sapiens, HepG2, 40 h, read-out: ATP (HepG2, galactose) IC50",41.4 µM
same,IC50,"HepG2 cells [2]; Homo sapiens, HepG2, 40 h, read-out: ATP (HepG2, glucose) IC50",48.2 µM
same,p53 (HCT-116) EC50,[3]; [17],Inactive
same,ARE (HepG2) EC50,[4]; [17],Inactive
same,Potential Mechanism,[5],"Uncoupler at low concentrations (0.8-4 µM), and Uncoupler + inhibitor at high concentrations (20 -100 µM)"
same,"I-ADP, % of control (O2 consumption rate)",[5]; 0.16 µM,104 (45.2) % of control
same,"I-sub, % of control (O2 consumption rate)",[5]; 0.16 µM,112 (14.7) % of control
same,"II-ADP, % of control (O2 consumption rate)",[5]; 0.16 µM,97 (66.0) % of control
same,"II-sub, % of control (O2 consumption rate)",[5]; 0.16 µM,97 (20.2) % of control
same,"I-ADP, % of control (O2 consumption rate)",[5]; 0.8 µM,95 (41.2) % of control
same,"I-sub, % of control (O2 consumption rate)",[5]; 0.8 µM,111 (14.5) % of control
same,"II-ADP, % of control (O2 consumption rate)",[5]; 0.8 µM,107 (72.3) % of control
same,"II-sub, % of control (O2 consumption rate)",[5]; 0.8 µM,125 (26.1) % of control
same,"I-ADP, % of control (O2 consumption rate)",[5]; 4 µM,97 (42.2) % of control
same,"I-sub, % of control (O2 consumption rate)",[5]; 4 µM,182 (23.9) % of control
same,"II-ADP, % of control (O2 consumption rate)",[5]; 4 µM,87 (58.8) % of control
same,"II-sub, % of control (O2 consumption rate)",[5]; 4 µM,203 (42.5) % of control
same,"I-ADP, % of control (O2 consumption rate)",[5]; 20 µM,72 (31.3) % of control
same,"I-sub, % of control (O2 consumption rate)",[5]; 20 µM,285 (37.3) % of control
same,"II-ADP, % of control (O2 consumption rate)",[5]; 20 µM,39 (26.3) % of control
same,"II-sub, % of control (O2 consumption rate)",[5]; 20 µM,150 (31.3) % of control
same,"I-ADP, % of control (O2 consumption rate)",[5]; 100 µM,21 (11.4) % of control
same,"I-sub, % of control (O2 consumption rate)",[5]; 100 µM,110 (14.8) % of control
same,"II-ADP, % of control (O2 consumption rate)",[5]; 100 µM,15 (9.9) % of control
same,"II-sub, % of control (O2 consumption rate)",[5]; 100 µM,61 (13.1) % of control
same,Parkin recruitment,[7],Inactive
same,MMP assays efficacy (%) Rat Hepatocytes,rat primary hepatocytes [9],-86±11%
same,Rat hepatocytes (efficacy) (MMP),rat primary hepatocytes [9],10.5±4.28 ( −97.8±13.3 ) %
same,MMP assays efficacy (%) qHTS-HepG2,HepG2 cells [10],-103±9%
same,IC50,HepG2 cells [10],0.64 ± 0.25 µM
same,"LEC (lowest effect concentration), larval growth assay",[12],< 10 µM
same,"LEC (lowest effect concentration), ATP assay",[13],< 10 µM
same,IC50,"HepG2 cells [14]; HepG2, 1 h, read-out: HepG2 IC50 Galactose (MMP)",46.3 µM
same,IC50,"HepG2 cells [14]; HepG2, 1 h, read-out: HepG2 IC50 Glucose (MMP)",27.1 µM
same,IC50,"HepG2 cells [14]; HepG2, read-out: MMP assays IC50 (µM) HepG2",3.55 µM
same,Emax,"HepG2 cells [14]; HepG2, read-out: MMP assays efficacy (%) HepG2",109%
same,LUM: mean difference in luminescence (ATP content) relative to plate controls,[15]; 0.5 µM,0.2858
same,LUM: mean difference in luminescence (ATP content) relative to plate controls,[15]; 1 µM,0.2624
same,LUM: mean difference in luminescence (ATP content) relative to plate controls,[15]; 5 µM,0.9157
same,LUM: mean difference in luminescence (ATP content) relative to plate controls,[15]; 10 µM,0.9688
same,LUM: mean difference in luminescence (ATP content) relative to plate controls,[15]; 25 µM,0.9113
same,LUM: mean difference in luminescence (ATP content) relative to plate controls,[15]; 50 µM,1.406
same,LUM: mean difference in luminescence (ATP content) relative to plate controls,[15]; 75 µM,1.423
same,LUM: mean difference in luminescence (ATP content) relative to plate controls,[15]; 100 µM,1.347
same,minimal effective concentration,"[15]; Caenorhabditis elegans, read-out: LEC LUM: lowest effect concentration for luminescence, a measure of nematode ATP content",5 µM
same,IC50,"rat primary hepatocytes [11]; Rattus norvegicus, Hepatocyte, 1 h, read-out: Rat hepatocytes IC50 (MMP)",10.5 µM
same,IC50,"rat primary hepatocytes [11]; Rattus norvegicus, Hepatocyte, read-out: MMP assays IC50 (µM) Rat Hepatocytes",4.65 ± 4.78 µM
same,EXT: mean difference in nematode size relative to plate controls,[16]; 0.5 µM,0.2337
same,EXT: mean difference in nematode size relative to plate controls,[16]; 1 µM,0.388
same,EXT: mean difference in nematode size relative to plate controls,[16]; 5 µM,0.7901
same,EXT: mean difference in nematode size relative to plate controls,[16]; 10 µM,1.11
same,EXT: mean difference in nematode size relative to plate controls,[16]; 25 µM,1.457
same,EXT: mean difference in nematode size relative to plate controls,[16]; 50 µM,1.812
same,EXT: mean difference in nematode size relative to plate controls,[16]; 75 µM,1.667
same,EXT: mean difference in nematode size relative to plate controls,[16]; 100 µM,1.868
same,minimal effective concentration,"[16]; Caenorhabditis elegans, read-out: LEC EXT: lowest effect concentration for extinction, a measure of nematode size",1 µM
